Source: patent US8835420B2, “Azaindole derivatives” (Takeda Pharmaceutical Company Limited, priority 2012, dated 2014)

Target: T1, PI3Kδ (recombinant GST-tagged PIK3CD co-expressed with PIK3R1, p85α) (Homo sapiens, UniProt O00329)
T1 construct: The protein is full length and co-expressed with untagged PIK3R1; GST; purchased Invitrogen PV5274
Experiment: PI3Kδ inhibition, modified PIK3CD Adapta TR-FRET kinase assay
Type: biochemical
Settings: 2 μM ATP, 50 μM PIP2, 1 hour at room temperature, pIC50 = -log(IC50 in M)
Procedure: The activity of compounds as PI3Kδ inhibitors may be determined by a variety of methods, including in vitro and in vivo methods. The following in vitro assay measures a test compound's ability to inhibit PI3Kδ-mediated phosphorylation of PIP2 and ATP.
Recombinant GST-tagged PIK3CD is purchased from Invitrogen (Part Number: PV5274). The protein is full length and co-expressed with untagged PIK3R1, phosphoinositide-3-kinase regulatory subunit 1 (p85α). The protein is stored at −20° C. in 50 mM TRIS (pH 7.5), 150 mM NaCl, 0.5 mM EDTA, 0.02% Triton® X-100, 2 mM DTT, and 50% glycerol.
A modified PIK3CD Adapta® assay (Invitrogen, Carlsbad, Calif.) is used to measure PI3Kδ inhibition of the example compounds. The assay has two phases. In the first phase, kinase reaction components, which include the enzyme (PIK3CD), substrates (PIP2, ATP), test compound (inhibitor), and assay buffer are added to each well, and the reaction is allowed to incubate for a pre-determined period of time. After reaction, a detection solution composed of a Eu (europium)-labeled anti-ADP antibody, Alexa Fluor® 647-labeled ADP tracer, and EDTA (to stop the kinase reaction) is added to each assay well. In this second phase, ADP formed by the kinase reaction displaces the Alexa Fluor® 647-labeled ADP tracer from the antibody, resulting in a decrease in time-resolved fluorescence resonance energy transfer (TR-FRET) signal. In the presence of the inhibitor, the amount of ADP formed by the kinase reaction is reduced, and the resulting intact antibody-tracer interaction maintains a high TR-FRET signal.
The assay uses black Greiner® 384-well plates (784076). The reaction buffer contains 50 mM Hepes (pH 7.5), 3 mM MgCl2, 1 mM EGTA, 100 mM NaCl, 0.03% CHAPS; 2 mM DTT is added fresh prior to each experiment. Enzyme (4 μL, estimated 1.5 nM in buffer) is first added to the wells of the plate. Next, test compounds (2 μL) from a source plate (5% dilution plate) are introduced into the wells. The final DMSO concentration in each assay well is 1%. The dilution plate contains 5% DMSO in the bottom half of columns 23 and 24, which serve as negative (non-inhibited) controls; the top half contains a known inhibitor concentration (positive control) that gives >98% inhibition of the kinase reaction. Other wells contain test compounds serially diluted across the plate 11 times for a total of 12 data points. The kinase reactions are carried out at room temperature and are initiated by the addition of 4 μL of solution containing 2 μM ATP and 50 μM PIP2. Each reaction is stopped after 1 hour±10 minutes via addition of 10 μL stop solution, which contains a final assay concentration of 3 nM Alexa Fluor® 647-labeled ADP tracer, 2 nM Eu-anti-ADP Antibody, and 10 mM EDTA. After allowing the solutions to equilibrate for 30±10 minutes, a PHERAstar plate reader is used to excite the Eu donor (at 337 nm) and to detect emission from the Alexa Fluor® 647 at 665 nm. This emission signal is referenced or “ratioed” to the emission from Eu at 620 nm. The emission ratio (665 nm/620 nm) from each well is collected and converted to percent conversion using a standard curve for the assay conditions: % conversion=B*(C+A−emission ratio)/(emission ratio−C), where “A” and “C” are the maximum and minimum values of the emission ratio obtained from the standard curve of emission ratio vs. % conversion (ATP-ADP); “B” is the emission ratio corresponding to the % conversion at the EC50 value for the ADP Tracer—Eu anti-ADP antibody complex. The percent inhibition for a given inhibitor concentration is computed from % conversion for the reaction and for the positive and negative controls. Corresponding IC50 values are calculated by non-linear curve fitting of the compound concentrations and values of percent inhibition to the standard IC50 equation and are reported as pIC50, i.e., −log(IC50), where IC50 is molar concentration at 50% inhibition.

T1 sequence (O00329 whole entry): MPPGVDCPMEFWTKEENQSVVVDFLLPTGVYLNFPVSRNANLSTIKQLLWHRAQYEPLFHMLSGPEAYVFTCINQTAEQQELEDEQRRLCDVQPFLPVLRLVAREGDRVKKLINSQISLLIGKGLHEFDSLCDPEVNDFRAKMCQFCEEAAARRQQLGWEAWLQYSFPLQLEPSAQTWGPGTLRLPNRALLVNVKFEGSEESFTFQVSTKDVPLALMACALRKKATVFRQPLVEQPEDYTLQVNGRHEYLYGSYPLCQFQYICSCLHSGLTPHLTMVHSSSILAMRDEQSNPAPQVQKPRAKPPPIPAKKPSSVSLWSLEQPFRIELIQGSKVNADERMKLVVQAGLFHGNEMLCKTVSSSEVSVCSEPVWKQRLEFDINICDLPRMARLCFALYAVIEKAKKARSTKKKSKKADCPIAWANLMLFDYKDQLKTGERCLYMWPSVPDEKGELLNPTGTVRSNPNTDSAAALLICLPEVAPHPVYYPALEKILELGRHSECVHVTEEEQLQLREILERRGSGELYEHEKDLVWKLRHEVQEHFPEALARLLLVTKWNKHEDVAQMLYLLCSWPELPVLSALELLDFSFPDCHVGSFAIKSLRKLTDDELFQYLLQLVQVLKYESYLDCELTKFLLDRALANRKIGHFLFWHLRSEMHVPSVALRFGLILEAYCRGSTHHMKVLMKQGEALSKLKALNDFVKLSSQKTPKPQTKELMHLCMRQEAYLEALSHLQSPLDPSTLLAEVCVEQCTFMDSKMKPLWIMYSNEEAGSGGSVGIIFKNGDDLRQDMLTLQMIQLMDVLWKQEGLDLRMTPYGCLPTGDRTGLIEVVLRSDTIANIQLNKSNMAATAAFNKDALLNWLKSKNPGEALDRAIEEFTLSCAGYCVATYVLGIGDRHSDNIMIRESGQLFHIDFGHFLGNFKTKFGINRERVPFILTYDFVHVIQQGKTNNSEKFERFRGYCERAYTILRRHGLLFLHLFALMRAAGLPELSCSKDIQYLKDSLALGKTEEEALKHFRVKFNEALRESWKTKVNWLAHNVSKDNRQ
T1 sequence (P27986 whole entry partner): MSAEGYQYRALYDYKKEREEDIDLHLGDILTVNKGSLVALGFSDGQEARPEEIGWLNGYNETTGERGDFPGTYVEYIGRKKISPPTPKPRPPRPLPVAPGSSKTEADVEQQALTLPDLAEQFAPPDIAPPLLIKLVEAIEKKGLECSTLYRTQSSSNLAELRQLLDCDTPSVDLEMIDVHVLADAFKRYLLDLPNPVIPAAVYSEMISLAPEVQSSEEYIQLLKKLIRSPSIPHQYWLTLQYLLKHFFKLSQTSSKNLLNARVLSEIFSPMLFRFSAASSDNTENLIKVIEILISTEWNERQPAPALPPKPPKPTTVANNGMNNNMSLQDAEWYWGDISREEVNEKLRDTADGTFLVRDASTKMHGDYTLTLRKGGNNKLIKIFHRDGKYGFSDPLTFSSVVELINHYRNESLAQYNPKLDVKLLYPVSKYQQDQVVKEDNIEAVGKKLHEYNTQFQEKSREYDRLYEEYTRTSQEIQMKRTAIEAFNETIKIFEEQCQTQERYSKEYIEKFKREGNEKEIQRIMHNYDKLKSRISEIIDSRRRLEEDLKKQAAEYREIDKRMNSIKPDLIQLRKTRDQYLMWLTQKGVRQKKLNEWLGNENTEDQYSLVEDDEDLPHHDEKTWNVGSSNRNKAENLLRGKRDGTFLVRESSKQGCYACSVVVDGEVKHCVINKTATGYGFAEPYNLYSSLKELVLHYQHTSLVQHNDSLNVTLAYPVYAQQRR

SMILES: Cc1nc(N)c(C#N)c(NC(C)c2nc3ccn(C)c3cc2N2CCOCC2)n1 (stereo not drawn) [Example 6, 4-Amino-2-methyl-6-((1-(1-methyl-6-morpholino-1H-pyrrolo[3,2-b]pyridin-5-yl)ethyl)amino)pyrimidine-5-carbonitrile]
- IC50: 0.0631 µM

SMILES: Cc1nc(N)nc(N[C@@H](C)c2nc3ccn(C)c3cc2-c2ccccn2)c1C#N [Example 24, (S)-2-Amino-4-methyl-6-((1-(1-methyl-6-(pyridin-2-yl)-1H-pyrrolo[3,2-b]pyridin-5-yl)ethyl)amino)pyrimidine-5-carbonitrile]
- IC50: < 0.001 µM

SMILES: CC(Nc1nc(N)nc(N)c1Cl)c1nc2ccn(C)c2cc1N1CC(F)(F)C1 (stereo not drawn) [Example 38, 5-Chloro-N^4-(1-(6-(3,3-difluoroazetidin-1-yl)-1-methyl-1H-pyrrolo[3,2-b]pyridin-5-yl)ethyl)pyrimidine-2,4,6-triamine]
- IC50: 0.158 µM

SMILES: C[C@H](Nc1nc(N)nc(N)c1Cl)c1nc2ccn(C)c2cc1N1CCOCC1 [Example 28, (S)-5-Chloro-N^4-(1-(1-methyl-6-morpholino-1H-pyrrolo[3,2-b]pyridin-5-yl)ethyl)pyrimidine-2,4,6-triamine]
- IC50: 0.126 µM

SMILES: C[C@H](Nc1nc(N)nc(N)c1Cl)c1nc2ccn(C)c2cc1-c1ccnn1C [Example 33, (S)-5-Chloro-N^4-(1-(1-methyl-6-(1-methyl-1H-pyrazol-5-yl)-1H-pyrrolo[3,2-b]pyridin-5-yl)ethyl)pyrimidine-2,4,6-triamine]
- IC50: 0.0316 µM

SMILES: C[C@H](Nc1nc(N)nc(N)c1C#N)c1nc2ccn(C)c2cc1N1CCOCC1 [Example 29, (S)-2,4-Diamino-6-((1-(1-methyl-6-morpholino-1H-pyrrolo[3,2-b]pyridin-5-yl)ethyl)amino)pyrimidine-5-carbonitrile]
- IC50: < 0.00126 µM

SMILES: Cc1nc(N)nc(N[C@@H](C)c2nc3ccn(C)c3cc2C2CCOCC2)c1C#N [Example 25, (S)-2-Amino-4-methyl-6-((1-(1-methyl-6-(tetrahydro-2H-pyran-4-yl)-1H-pyrrolo[3,2-b]pyridin-5-yl)ethyl)amino)pyrimidine-5-carbonitrile]
- IC50: < 0.00126 µM

SMILES: CC(Nc1nc(N)nc(N)c1Cl)c1nc2ccn(C)c2cc1N1CC(O)C1 (stereo not drawn) [Example 40, 1-(5-(1-((2,6-Diamino-5-chloropyrimidin-4-yl)amino)ethyl)-1-methyl-1H-pyrrolo[3,2-b]pyridin-6-yl)azetidin-3-ol]
- IC50: 0.0794 µM

SMILES: C[C@H](Nc1nc(N)ncc1Cl)c1nc2ccn(C)c2cc1-c1ccnn1C [Example 1, (S)-5-Chloro-N^4-(1-(1-methyl-6-(1-methyl-1H-pyrazol-5-yl)-1H-pyrrolo[3,2-b]pyridin-5-yl)ethyl)pyrimidine-2,4-diamine]
- IC50: 0.126 µM

SMILES: C[C@H](Nc1nc(N)nc(N)c1C#N)c1nc2c(O)cn(C)c2cc1N1CCOCC1 [Example 49, (S)-2,4-Diamino-6-((1-(3-hydroxy-1-methyl-6-morpholino-1H-pyrrolo[3,2-b]pyridin-5-yl)ethyl)amino)pyrimidine-5-carbonitrile]
- IC50: 0.251 µM

SMILES: C[C@H](Nc1nc(N)nc(N)c1C#N)c1nc2ccn(C)c2cc1-c1cscn1 [Example 17, (S)-2,4-Diamino-6-((1-(1-methyl-6-(thiazol-4-yl)-1H-pyrrolo[3,2-b]pyridin-5-yl)ethyl)amino)pyrimidine-5-carbonitrile]
- IC50: < 0.001 µM

SMILES: C[C@H](Nc1nc(N)nc(N)c1C#N)c1nc2ccn(C)c2cc1-c1ccccn1 [Example 12, (S)-2,4-Diamino-6-((1-(1-methyl-6-(pyridin-2-yl)-1H-pyrrolo[3,2-b]pyridin-5-yl)ethyl)amino)pyrimidine-5-carbonitrile]
- IC50: 0.00158 µM

SMILES: C[C@H](Nc1nc(N)nc(N)c1C#N)c1nc2ccn(C)c2cc1-c1ccnc(O)c1 [Example 15, (S)-2,4-Diamino-6-((1-(6-(2-hydroxypyridin-4-yl)-1-methyl-1H-pyrrolo[3,2-b]pyridin-5-yl)ethyl)amino)pyrimidine-5-carbonitrile]
- IC50: < 0.001 µM

SMILES: C[C@H](Nc1nc(N)nc(N)c1C#N)c1nc2ccn(C)c2cc1N1CCOCC1 [Example 10, (S)-2,4-Diamino-6-((1-(1-methyl-6-morpholino-1H-pyrrolo[3,2-b]pyridin-5-yl)ethyl)amino)pyrimidine-5-carbonitrile]
- IC50: < 0.00251 µM

SMILES: Cc1n[nH]c(C)c1-c1cc2c(ccn2C)nc1[C@H](C)Nc1nc(N)nc(N)c1C#N [Example 14, 2,4-Diamino-6-(((1S)-1-(6-(3,5-dimethyl-1H-pyrazol-4-yl)-1-methyl-1H-pyrrolo[3,2-b]pyridin-5-yl)ethyl)amino)pyrimidine-5-carbonitrile]
- IC50: 0.00794 µM

SMILES: C[C@H](Nc1nc(O)nc(N)c1C#N)c1nc2ccn(C)c2cc1N1CCOCC1 [Example 8, (S)-4-Amino-2-hydroxy-6-((1-(1-methyl-6-morpholino-1H-pyrrolo[3,2-b]pyridin-5-yl)ethyl)amino)pyrimidine-5-carbonitrile]
- IC50: 1 µM

SMILES: Cc1noc(C)c1-c1cc2c(ccn2C)nc1[C@H](C)Nc1nc(N)nc(N)c1C#N [Example 30, 2,4-Diamino-6-(((1S)-1-(6-(3,5-dimethylisoxazol-4-yl)-1-methyl-1H-pyrrolo[3,2-b]pyridin-5-yl)ethyl)amino)pyrimidine-5-carbonitrile]
- IC50: < 0.001 µM

SMILES: C[C@H](Nc1nc(N)nc(N)c1C#N)c1nc2ccn(C)c2cc1N1CCC(C)(O)CC1 [Example 21, (S)-2,4-Diamino-6-((1-(6-(4-hydroxy-4-methylpiperidin-1-yl)-1-methyl-1H-pyrrolo[3,2-b]pyridin-5-yl)ethyl)amino)pyrimidine-5-carbonitrile]
- IC50: 0.00501 µM

SMILES: C[C@H](Nc1nc(N)nc2[nH]ncc12)c1nc2ccn(C)c2cc1-c1ccnn1C [Example 18, (S)—N^4-(1-(1-Methyl-6-(1-methyl-1H-pyrazol-5-yl)-1H-pyrrolo[3,2-b]pyridin-5-yl)ethyl)-1H-pyrazolo[3,4-d]pyrimidine-4,6-diamine]
- IC50: 0.501 µM

SMILES: C[C@H](Nc1nc(N)ncc1Cl)c1nc2ccn(C)c2cc1N1CCOCC1 [Example 5, (S)-5-Chloro-N^4-(1-(1-methyl-6-morpholino-1H-pyrrolo[3,2-b]pyridin-5-yl)ethyl)pyrimidine-2,4-diamine]
- IC50: 0.126 µM

SMILES: C[C@@H](Nc1nc(N)nc(N)c1C#N)c1nc2ccn(C)c2cc1N1CCC(C)(O)CC1 [Example 22, (R)-2,4-Diamino-6-((1-(6-(4-hydroxy-4-methylpiperidin-1-yl)-1-methyl-1H-pyrrolo[3,2-b]pyridin-5-yl)ethyl)amino)pyrimidine-5-carbonitrile]
- IC50: 2 µM

SMILES: CC(Nc1nc(N)nc(N)c1C#N)c1nc2ccn(C)c2cc1N1CC(O)C1 (stereo not drawn) [Example 39, 2,4-Diamino-6-((1-(6-(3-hydroxyazetidin-1-yl)-1-methyl-1H-pyrrolo[3,2-b]pyridin-5-yl)ethyl)amino)pyrimidine-5-carbonitrile]
- IC50: < 0.00158 µM

SMILES: Cc1n[nH]cc1-c1cc2c(ccn2C)nc1[C@H](C)Nc1nc(N)nc(C)c1C#N [Example 19, (S)-2-Amino-4-methyl-6-((1-(1-methyl-6-(3-methyl-1H-pyrazol-4-yl)-1H-pyrrolo[3,2-b]pyridin-5-yl)ethyl)amino)pyrimidine-5-carbonitrile]
- IC50: 0.00501 µM

SMILES: C[C@H](Nc1nc(N)nc(N)c1C#N)c1nc2ccn(C)c2cc1N1CC2(COC2)C1 [Example 47, (S)-2,4-Diamino-6-((1-(1-methyl-6-(2-oxa-6-azaspiro[3.3]heptan-6-yl)-1H-pyrrolo[3,2-b]pyridin-5-yl)ethyl)amino)pyrimidine-5-carbonitrile]
- IC50: 0.0158 µM
